Key:
Format in all cases: in vivo
[1] = tested on: adult cat fleas (Ctenocephalides felis); assay: Direct spray knockdown of adult cat fleas; conditions: 10% nootkatone; for cat fleas knocked down, average count of 5 trials (of 10): 0.1% BHT in isopropanol
Procedure: A direct spray formulation, containing 10% nootkatone, 0.1% butylated hydroxytoluene (BHT) in isopropanol, stored at ambient temperature and humidity, was tested for efficacy for knockdown and mortality among adult cat fleas (Ctenocephalides felis). Five replicates of 10 adult cat fleas (El Labs Inc (Soquel, Calif.)) were emptied from 9 dram vials into 5 gallon HDPE Payliner® pail liners lined with paper towels. Each replicate was sprayed manually with 1 gram±0.1 grams of the 10% nootkatone formulation from the rim of the pail liner. The spray bottle was weighed before and after treating each replicate to confirm the weight of the test sample dispensed. Five control replicates of 10 adult cat fleas were treated with isopropyl alcohol, following the same protocol. The study provided a single treatment of 10% nootkatone formulation or isopropyl alcohol. All spraying took place in a vented, stainless steel Peet Grady chamber (6×6×6 ft).
The average weight of isopropanol and 10% nootkatone formulation applied to the five replicates was 1.0 g and 1.07 g, respectively. […] Knockdown was defined as the failure of the cat flea to jump even following exhalation of a technician into the pail liner.

[2] = tested on: adult bed bugs (Cimex lectularius); assay: Bed bug repellency, treated versus untreated filter paper halves in Petri dish chamber; conditions: for Repellency (%) Treatment Group / bed bugs on Nootkatone treatment filter paper (count, of 50) / Repellency (summary of bedbug repellency): 0.1% BHT; for Repellency (summary of bedbug repellency): Day 1
[3] = tested on: adult bed bugs (Cimex lectularius); assay: Direct spray knockdown of adult bed bugs; conditions: for bed bug knockdown activity, in words: early time points; for bed bugs exhibiting knockdown, average count of 5 trials (of 10): 10% nootkatone, 0.1% BHT in isopropanol
Procedure: A direct spray formulation, containing 10% nootkatone (from Bedoukian Research, Inc., Product No. 800; Danbury, Conn.), 0.1% butylated hydroxytoluene (BHT) in isopropanol, stored at ambient temperature and humidity, was tested for efficacy for knockdown and mortality among adult bed bugs (Cimex lectularius). Adult bed bugs (ICR, Baltimore, Md.) used in this study were blood fed within 7 days of testing. The bed bugs were anesthetized with CO2 and five groups of ten bed bugs were transferred into 9 dram vials at least 2 hours prior to testing. Just prior to treatment, the bed bugs were transferred to 16 oz. paper solo cups with cloth glued to the bottom on the inside of the cup and a screened lid. Each replicate was then sprayed manually, using a 2-3 oz. pump sprayer, with 1 gram±0.1 grams of the 10% nootkatone formulation. Each replicate was sprayed separately from a vertical distance of 6 inches above the bed bugs. The spray bottle was weighed before and after treating each replicate to confirm the weight of the test sample dispensed. All spraying took place in a vented, stainless steel Peet Grady chamber (6×6×6 ft). […] Knockdown was defined as the inability of a bed bug to right itself when placed on its back. After the five minute time point, the bed bugs were transferred to recovery containers that hold 16 oz. paper solo cups equipped with screened lids. A further knockdown study took place at 15 minutes post treatment. Serving as control samples, five replicates of 10 adult bed bugs were treated with isopropyl alcohol alone and five replicates of 10 adult bed bugs were treated with water, following the protocol outlined above.
A direct spray formulation, containing 5% nootkatone (from Bedoukian Research, Inc., Product No. 800; Danbury, Conn.), 0.1% butylated hydroxytoluene (BHT) in acetone, stored at ambient temperature and humidity, was tested for efficacy for knockdown and mortality among adult bed bugs (Cimex lectularius) using the same procedure as described in Example 1 above. Five replicates of ten bed bugs were sprayed with 1.0 g±20% of a 5% nootkatone in acetone solution stabilized with 0.1% BHT. An additional five replicates were treated with 1.0 g±20% of tap water to serve as a control.

[4] = 0.50% nootkatone in acetone, Day 1, 0.5 hour

SMILES: C=C(C)[C@@H]1CCC2=CC(=O)C[C@@H](C)[C@]2(C)C1 [nootkatone, 4,4a,5,6,7,8-hexahydro-6-isopropenyl-4,4a-dimethyl-2(3H)-naphtalenone]
- cat flea knockdown efficacy, in words [1]: not effective in knocking down cat fleas
- cat fleas knocked down, average count of 5 trials (of 10) ([1]; 0.5 min): 0.2
- cat fleas knocked down, average count of 5 trials (of 10) ([1]; 1 min): 0.2
- cat fleas knocked down, average count of 5 trials (of 10) ([1]; 2 min): 0.4
- cat fleas knocked down, average count of 5 trials (of 10) ([1]; 3 min): 0
- cat fleas knocked down, average count of 5 trials (of 10) ([1]; 4 min): 0.2
- cat fleas knocked down, average count of 5 trials (of 10) ([1]; 5 min): 0.4
- cat fleas knocked down, average count of 5 trials (of 10) ([1]; 15 min): 0
- fleas knocked down, in words ([1]; 15 minutes): no fleas were knocked down
- fleas knocked down ([1]; within the first 5 minutes): no more than 4%
- Repellency (%) Treatment Group ([2]; 0.01% nootkatone in acetone, Day 1, 1.0 hour): 66.0%
- bed bugs on Nootkatone treatment filter paper (count, of 50) ([2]; 0.01% nootkatone in acetone, Day 1, 24.0 hour): 21
- bedbug repellency, in words ([2]; 0.01% nootkatone in acetone, day 1 and day 2, statistically significant versus the control): moderate bedbug repellency
- Repellency (%) Treatment Group ([2]; 0.10% nootkatone in acetone, Day 1, 0.5 hour): 94.0%
- Repellency (%) Treatment Group ([2]; 0.10% nootkatone in acetone, Day 1, 2.0 hour): 94.0%
- bedbug repellency, in words ([2]; 0.1% nootkatone in acetone, day one): good bedbug repellent for one day
- Repellency (%) Treatment Group [2, 4]: 100.0%
- bed bugs on Nootkatone treatment filter paper (count, of 50) [2, 4]: 0
- bed bugs on Nootkatone treatment filter paper (count, of 50) ([2]; 0.50% nootkatone in acetone, Day 1, Average of time points): 0.0
- Repellency (%) Treatment Group ([2]; 0.50% nootkatone in acetone, Day 2, 1.0 hour): 88.0%
- bed bugs on Nootkatone treatment filter paper (count, of 50) ([2]; 0.50% nootkatone in acetone, Day 2, Average of time points): 4.2
- bedbug repellency, in words ([2]; 0.5% nootkatone in acetone, two days): good bedbug repellent for two days
- Repellency (summary of bedbug repellency) ([2]; Nootkatone 0.010% in acetone): 66.0%
- Repellency (summary of bedbug repellency) ([2]; Nootkatone 0.10% in acetone): 93.6%
- bed bug knockdown compared with control, in words ([3]; 5% nootkatone in acetone, 15 minutes): no greater effect on bed bug knockdown than that observed for the control
- bed bug knockdown activity, in words ([3]; 5% nootkatone in acetone): some knockdown activity
- bed bug knockdown compared with isopropanol alone, in words ([3]; 10% nootkatone in isopropanol, 15 minutes): no greater effect on bed bug knockdown than that observed for isopropanol alone
- bed bug knockdown activity, in words ([3]; 10% nootkatone in isopropanol): some knockdown activity
- bed bugs exhibiting knockdown, average count of 5 trials (of 10) ([3]; 0.5 min post treatment): 1.6
- bed bugs exhibiting knockdown, average count of 5 trials (of 10) ([3]; 1 min post treatment): 2.6
- bed bugs exhibiting knockdown, average count of 5 trials (of 10) ([3]; 2 min post treatment): 4.6
- bed bugs exhibiting knockdown, average count of 5 trials (of 10) ([3]; 3 min post treatment): 5
- bed bugs exhibiting knockdown, average count of 5 trials (of 10) ([3]; 4 min post treatment): 4.6
- bed bugs exhibiting knockdown, average count of 5 trials (of 10) ([3]; 5 min post treatment): 4.8
- bed bugs exhibiting knockdown, average count of 5 trials (of 10) ([3]; 15 min post treatment): 4.4

— patent US20150250166A1, “NOOTKATONE AS AN INSECTICIDE AND INSECT REPELLENT” (ALLYLIX, INC., priority 2012, published 2015)
